Measurements: ChEMBL document CHEMBL1124608, “Synthesis of acylguanidine analogues: inhibitors of ADP-induced platelet aggregation” (J Med Chem, 1989)
≈ marks a conversion by molar mass, not a printed value. Where “and” joins values, the source holds several entries; their conditions need not be identical. Equal values may be shown once. Calls of active or inactive are those of the source. No cut-off for these calls is given here.

How the values were obtained:
Rattus norvegicus [1] = test: ADP-induced platelet aggregation activity was tested for oral activity in rats at dose 100 mg/kg; assay type: functional
[2] = Inhibitory activity against ADP-induced platelet aggregation at concentration 3.2 ug/mL; assay type: functional, Homo sapiens
[3] = Inhibitory activity against ADP-induced platelet aggregation at concentration 10 ug/mL; assay type: functional, Homo sapiens; settings: for inhibition at 10 µg/mL: Homo sapiens
Homo sapiens [4] = organism: Homo sapiens; test: Activity against PRP following incubation for 30 min in human whole blood; Active; assay type: functional, tissue-based
[5] = Concentration required to inhibit in vitro ADP-induced platelet aggregation in human platelet rich plasma relative PGE1; assay type: functional
[6] = Inhibitory activity against ADP-induced platelet aggregation at concentration 1 ug/mL; assay type: functional, Homo sapiens
[7] = Inhibitory concentration required to inhibit ADP-induced platelet aggregation in human platelet rich plasma; assay type: functional, cell-free
Rattus norvegicus [8] = test: ADP-induced platelet aggregation activity was tested for oral activity in rats at dose 30 mg/kg; assay type: functional
Cavia porcellus [9] = test: ADP-induced platelet aggregation activity was tested for oral activity in guinea pigs at dose 100 mg/kg; assay type: functional
Cavia porcellus [10] = test: ADP-induced platelet aggregation activity was tested for oral activity in guinea pigs at dose 50 mg/kg
[11] = Inhibitory activity against ADP-induced platelet aggregation at concentration 1.0 ug/mL; assay type: functional; settings: Homo sapiens
Cavia porcellus [12] = test: ADP-induced platelet aggregation activity was tested for oral activity in guinea pigs at dose 30 mg/kg; assay type: functional
[13] = Inhibitory activity against ADP-induced platelet aggregation at concentration 32 ng/mL; assay type: functional, Homo sapiens
[14] = Inhibitory activity against ADP-induced platelet aggregation at concentration 10 ng/mL; assay type: functional, Homo sapiens
Homo sapiens [15] = organism: Homo sapiens; test: Activity against PRP following incubation for 30 min in human whole blood; Inactive; assay type: functional, tissue-based
Rattus norvegicus [16] = test: ADP-induced platelet aggregation activity was tested for oral activity in rats at dose 25 mg/kg; assay type: functional
Cavia porcellus [17] = test: ADP-induced platelet aggregation activity was tested for oral activity in guinea pigs at dose 50 mg/kg; assay type: functional
Rattus norvegicus [18] = test: ADP-induced platelet aggregation activity was tested for oral activity in rats at dose 50 mg/kg; assay type: functional

| SMILES | Aggregation (Rattus norvegicus [1]) | Relative potency [5] | IC50 [7] | other results |
| --- | --- | --- | --- | --- |
| O=C(NCCCCCCNC(=O)N(C(=NC1CCCCC1)N1CCOCC1)C1CCCCC1)N(C(=NC1CCCCC1)N1CCOCC1)C1CCCCC1 | 80.8% | 0.003 | 3.2 µg/mL (≈ 4.24 µM) | Inhibition [2]: 38% and 62%; Inhibition [3]: 85%; inhibition at 10 µg/mL [3]: 82%; Activity (Homo sapiens [4]): Active; Inhibition [6]: 27%; inhibition at 1 µg/mL ([6]; Homo sapiens): 29% |
| O=C(NCCCCNC(=O)N(C(=NC1CCCCC1)N1CCOCC1)C1CCCCC1)N(C(=NC1CCCCC1)N1CCOCC1)C1CCCCC1 | 73.5% | 0.001 | 10 µg/mL (≈ 13.8 µM) |  |
| CN(CCCCCCN(C)C(=O)N(C(=NC1CCCCC1)N1CCOCC1)C1CCCCC1)C(=O)N(C(=NC1CCCCC1)N1CCOCC1)C1CCCCC1 | 52% | 0.003 | 3.2 µg/mL (≈ 4.09 µM) | Aggregation (Rattus norvegicus [8]): 81.2%; Aggregation (Cavia porcellus [9]): 41% |
| O=C(NCc1cccc(CNC(=O)N(C(=NC2CCCCC2)N2CCOCC2)C2CCCCC2)c1)N(C(=NC1CCCCC1)N1CCOCC1)C1CCCCC1 |  | 0.003 | 3.2 µg/mL (≈ 4.13 µM) | Aggregation (Cavia porcellus [10]): 19.3%; inhibition at 3.2 µg/mL ([2]; Homo sapiens): 40%; inhibition at 1 µg/mL [11]: 27%; inhibition at 10 µg/mL [3]: 68%; Activity (Homo sapiens [4]): Active |
| O=C(NCCCCCCCNC(=O)N(C(=NC1CCCCC1)N1CCOCC1)C1CCCCC1)N(C(=NC1CCCCC1)N1CCOCC1)C1CCCCC1 | 70.5% | 0.001 | 10 µg/mL (≈ 13 µM) |  |
| O=C(NCCCCCCCCNC(=O)N(C(=NC1CCCCC1)N1CCOCC1)C1CCCCC1)N(C(=NC1CCCCC1)N1CCOCC1)C1CCCCC1 |  | 0.001 | 10 µg/mL (≈ 12.8 µM) |  |
| CN(CCN(C)C(=O)N(C(=NC1CCCCC1)N1CCOCC1)C1CCCCC1)C(=O)N(C(=NC1CCCCC1)N1CCOCC1)C1CCCCC1 | 100% | 0.003 | 3.2 µg/mL (≈ 4.4 µM) | Aggregation (Cavia porcellus [12]): 62.7%; Aggregation (Cavia porcellus [9]): 0% |
| CN(Cc1cccc(CN(C)C(=O)N(C(=NC2CCCCC2)N2CCOCC2)C2CCCCC2)c1)C(=O)N(C(=NC1CCCCC1)N1CCOCC1)C1CCCCC1 | 38.5% | 0.003 | 3.2 µg/mL (≈ 3.98 µM) |  |
| CCCCC[C@H](O)/C=C/[C@H]1[C@H](O)CC(=O)[C@@H]1CCCCCCC(=O)O [ALPROSTADIL] |  | 1 | 0.01 µg/mL (≈ 0.0282 µM) | Inhibition [13]: 94% and 90% and 72%; Inhibition [14]: 56% and 28% and 37% |
| O=C(N1CCN(C(=O)N(/C(=N/C2CCCCC2)N2CCOCC2)C2CCCCC2)CC1)N(/C(=N/C1CCCCC1)N1CCOCC1)C1CCCCC1 | 44.8% | 0.001 | 10 µg/mL (≈ 13.8 µM) |  |
| O=C(NCc1cc(CNC(=O)N(C(=NC2CCCCC2)N2CCOCC2)C2CCCCC2)cc(CNC(=O)N(C(=NC2CCCCC2)N2CCOCC2)C2CCCCC2)c1)N(C(=NC1CCCCC1)N1CCOCC1)C1CCCCC1 |  | 0.001 | 10 µg/mL (≈ 8.9 µM) | Activity (Homo sapiens [15]): inactive |
| Cl.Cl.O=C(NCCCCCCNC(=O)N(/C(=N/C1CCCCC1)N1CCOCC1)C1CCCCC1)N(/C(=N\C1CCCCC1)N1CCOCC1)C1CCCCC1 | 84.5% | 0.001 | 10 µg/mL |  |
| O=C(NCCCCCCNC(=O)N(C(=NC1CCCCC1)N1CCCCC1)C1CCCCC1)N(C(=NC1CCCCC1)N1CCCCC1)C1CCCCC1 | 46.2% | 0.001 | 10 µg/mL (≈ 13.3 µM) | Aggregation (Rattus norvegicus [16]): 83.2%; Aggregation (Cavia porcellus [17]): 47.7%; Aggregation (Rattus norvegicus [18]): 86%; Aggregation (Cavia porcellus [9]): 48.7% |
| O=C(NCCCCCNC(=O)N(C(=NC1CCCCC1)N1CCOCC1)C1CCCCC1)N(C(=NC1CCCCC1)N1CCOCC1)C1CCCCC1 | 41% | 0.001 | 10 µg/mL (≈ 13.5 µM) |  |
| O=C(NCCCCCCCCCNC(=O)N(C(=NC1CCCCC1)N1CCOCC1)C1CCCCC1)N(C(=NC1CCCCC1)N1CCOCC1)C1CCCCC1 |  | 0.001 | 10 µg/mL (≈ 12.5 µM) |  |
